Source: ChEMBL document CHEMBL5512673, “Secondary Structure Stabilization of Macrocyclic Antimicrobial Peptides via Cross-Link Swapping” (J Med Chem, 2024)
In brackets after ≈: the same amount, converted by molar mass. Activity calls are given as the source filed them. The calls are words filed in the database; no cut-off is given here. Bridge positions count the residues as written; N and C are the ends. Square brackets hold non-standard residues; d marks the D form. Peptide text beside a SMILES is read from it. Dab = NCC[C@H](N)C(=O)O; Dap = NC[C@H](N)C(=O)O

What was measured:
Trypsin = Trypsin (Homo sapiens, UniProt P07477+P07478+P35030); test: Stability of compound in PBS at […] assessed as trypsin (unknown origin)-mediated drug degradation measured after 3 to 60 mins using TAMRA-labelled compound by HPLC analysis; format: ADME, protein assay; settings: buffer, time 3-60 min
Escherichia coli [1] = test: Antibacterial activity against Escherichia coli assessed as inhibition of bacterial growth incubated for 24 hrs by nutrient agar plate method; format: functional
Bacillus subtilis [2] = test: Antibacterial activity against Bacillus subtilis assessed as inhibition of bacterial growth incubated for 24 hrs by nutrient agar plate method; format: functional
[3] = tested on: Staphylococcus epidermidis; test: Antibacterial activity against Staphylococcus epidermidis assessed as inhibition of bacterial growth incubated for 24 hrs by nutrient agar plate method; format: functional
RAW264.7 [4] = test: Cytotoxicity against mouse RAW264.7 cells assessed as reduction in cell viability at 100 uM incubated for 24 hrs by MTS assay; format: toxicity, cell-based; settings: raw264.7, 24 h
Escherichia coli [5] = test: Antibacterial activity against Escherichia coli assessed as reduction in bacterial cell viability incubated for 24 hrs by nutrient agar plate method; format: functional, organism-based
Bacillus subtilis [6] = test: Antibacterial activity against Bacillus subtilis assessed as reduction in bacterial cell viability incubated for 24 hrs by nutrient agar plate method; format: functional, organism-based
[7] = tested on: Staphylococcus epidermidis; test: Antibacterial activity against Staphylococcus epidermidis assessed as reduction in bacterial cell viability incubated for 24 hrs by nutrient agar plate method; format: functional, organism-based
RAW264.7 [8] = test: Upregulation of IL-1beta production in mouse RAW264.7 cells at 50 uM incubated for 24 hrs by ELISA; format: functional, cell-based
RAW264.7 [9] = test: Effect on IL-10 release in mouse RAW264.7 cells at 50 uM incubated for 24 hrs by ELISA; format: functional, cell-based
RAW264.7 [10] = test: Anti-inflammatory activity in mouse RAW264.7 cells assessed as reduction in LPS-induced IL-1beta production at 50 uM incubated for 24 hrs by ELISA; format: functional, cell-based
RAW264.7 [11] = test: Anti-inflammatory activity in mouse RAW264.7 cells assessed as reduction in LPS-induced IL-10 production at 50 uM incubated for 24 hrs by ELISA; format: functional, cell-based
[12] = Aggregation property of compound in aqueous solution assessed as critical micelle concentration by dynamic light scattering analysis; format: physicochemical; settings: buffer
Escherichia coli [13] = test: Antibacterial activity against Escherichia coli NEB 5alpha assessed as aggregation of bacteria into flakes at 2 to 50 uM incubated for 4 hrs by bacterial flocculation assay; format: functional, organism-based; settings: dose 2-50 µM
Bacillus subtilis [14] = test: Antibacterial activity against Bacillus subtilis ATCC 6051 assessed as aggregation of bacteria into flakes at 2 to 50 uM incubated for 4 hrs by bacterial flocculation assay; format: functional, organism-based; settings: dose 2-50 µM
Micrococcus luteus [15] = test: Antibacterial activity against Micrococcus luteus assessed as inhibition of bacterial growth incubated for 24 hrs by nutrient agar plate method; format: functional
Micrococcus luteus [16] = test: Antibacterial activity against Micrococcus luteus assessed as reduction in bacterial cell viability incubated for 24 hrs by nutrient agar plate method; format: functional, organism-based

| Stability (Trypsin) | MIC (Escherichia coli [1]) [µM] | MIC (Bacillus subtilis [2]) [µM] | MIC [3] [µM] | CMC [12] [µM] | MIC (Micrococcus luteus [15]) [µM] | SMILES | Activity (RAW264.7 [4]) | IC50 (Escherichia coli [5]) [µM] | IC50 (Bacillus subtilis [6]) [µM] | IC50 [7] [µM] | Activity (RAW264.7 [8]) | Activity (RAW264.7 [9]) | Activity (RAW264.7 [10]) | Activity (RAW264.7 [11]) | Activity (Escherichia coli [13]) | Activity (Bacillus subtilis [14]) | IC50 (Micrococcus luteus [16]) [µM] |
| --- | --- | --- | --- | --- | --- | --- | --- | --- | --- | --- | --- | --- | --- | --- | --- | --- | --- |
| Unstable |  |  |  |  |  | CN(C)c1ccc2c(-c3ccc(C(=O)N[C@@H](Cc4ccc(O)cc4)C(=O)NCC(=O)N[C@@H](CCCNC(=N)N)C(=O)N[C@@H](CCCCN)C(=O)N[C@@H](CCCCN)C(=O)N[C@@H](CCCNC(=N)N)C(=O)N[C@@H](CCCNC(=N)N)C(=O)N[C@@H](CCC(N)=O)C(=O)N[C@@H](CCCNC(=N)N)C(=O)N[C@@H](CCCNC(=N)N)C(=O)N[C@@H](CCCNC(=N)N)C(=O)O)cc3C(=O)[O-])c3ccc(=[N+](C)C)cc-3oc2c1 |  |  |  |  |  |  |  |  |  |  |  |
|  | 80 (≈ 103 µg/mL) | 100 (≈ 128 µg/mL) | 50 (≈ 64.1 µg/mL) | 4.5 |  | CC[C@H](C)[C@@H]1NC(=O)[C@H](CCCNC(=N)N)NC(=O)[C@H](Cc2ccccc2)NC(=O)[C@H](CCCCN)NC(=O)[C@H](Cc2ccccc2)NC(=O)[C@H](CCCNC(=N)N)NC(=O)[C@@H](N)CSSC[C@@H](C(N)=O)NC(=O)[C@H]([C@@H](C)CC)NC(=O)[C@H](C(C)C)NC1=O (H-CRFKFRIVIC-NH2; disulfide 1-10) | Non-Toxic | 32.2 | 461 | 8.5 | Active | Active | Active | Active | Active | Active |  |
|  | 40 (≈ 51.5 µg/mL) | 60 (≈ 77.3 µg/mL) | 20 (≈ 25.8 µg/mL) | > 100 | 80 (≈ 103 µg/mL) | CC[C@H](C)[C@@H]1NC(=O)[C@H](CCCNC(=N)N)NC(=O)[C@H](Cc2ccccc2)NC(=O)[C@H](CCCCN)NC(=O)[C@H](Cc2ccccc2)NC(=O)[C@H](CCCNC(=N)N)NC(=O)[C@@H](N)CCC(=O)NCC[C@@H](C(N)=O)NC(=O)[C@H]([C@@H](C)CC)NC(=O)[C@H](C(C)C)NC1=O (H-ERFKFRIVI[Dab]-NH2; lactam 1-10) | Non-Toxic | 8.5 | 15 | 3.5 | Active | Active | inactive | inactive | Active | Active | 11.1 |
|  | 80 (≈ 102 µg/mL) | 100 (≈ 127 µg/mL) | 40 (≈ 51 µg/mL) | 10.8 |  | CC[C@H](C)[C@@H]1NC(=O)[C@H](CCCNC(=N)N)NC(=O)[C@H](Cc2ccccc2)NC(=O)[C@H](CCCCN)NC(=O)[C@H](Cc2ccccc2)NC(=O)[C@H](CCCNC(=N)N)NC(=O)[C@@H](N)CCC(=O)NC[C@@H](C(N)=O)NC(=O)[C@H]([C@@H](C)CC)NC(=O)[C@H](C(C)C)NC1=O (H-ERFKFRIVI[Dap]-NH2; lactam 1-10) | Non-Toxic | 41.5 | 38.5 | 10.2 | Active | Active | Active | Active | Active | Active |  |
|  | 40 (≈ 51.5 µg/mL) | 60 (≈ 77.3 µg/mL) | 20 (≈ 25.8 µg/mL) | > 100 | 80 (≈ 103 µg/mL) | CC[C@H](C)[C@@H]1NC(=O)[C@H](CCCNC(=N)N)NC(=O)[C@H](Cc2ccccc2)NC(=O)[C@H](CCCCN)NC(=O)[C@H](Cc2ccccc2)NC(=O)[C@H](CCCNC(=N)N)NC(=O)[C@@H](N)CCNC(=O)CC[C@@H](C(N)=O)NC(=O)[C@H]([C@@H](C)CC)NC(=O)[C@H](C(C)C)NC1=O (H-[Dab]RFKFRIVIE-NH2; lactam 1-10) | Non-Toxic | 10.7 | 15.4 | 3.9 | Active | Active | inactive | inactive | Active | Active | 18 |
|  | 100 (≈ 127 µg/mL) | 100 (≈ 127 µg/mL) | 40 (≈ 51 µg/mL) | 2.3 |  | CC[C@H](C)[C@@H]1NC(=O)[C@H](CCCNC(=N)N)NC(=O)[C@H](Cc2ccccc2)NC(=O)[C@H](CCCCN)NC(=O)[C@H](Cc2ccccc2)NC(=O)[C@H](CCCNC(=N)N)NC(=O)[C@@H](N)CNC(=O)CC[C@@H](C(N)=O)NC(=O)[C@H]([C@@H](C)CC)NC(=O)[C@H](C(C)C)NC1=O (H-[Dap]RFKFRIVIE-NH2; lactam 1-10) | Non-Toxic | 35.9 | 36.2 | 7.2 | Active | Active | Active | Active | Active | Active |  |

| SMILES | Stability (Trypsin) | MIC (Escherichia coli [1]) [µM] | MIC (Bacillus subtilis [2]) [µM] | MIC [3] [µM] | CMC [12] [µM] | MIC (Micrococcus luteus [15]) [µM] | Activity (RAW264.7 [4]) | IC50 (Escherichia coli [5]) [µM] | IC50 (Bacillus subtilis [6]) [µM] | IC50 [7] [µM] | Activity (RAW264.7 [8]) | Activity (RAW264.7 [9]) | Activity (RAW264.7 [10]) | Activity (RAW264.7 [11]) | Activity (Escherichia coli [13]) | Activity (Bacillus subtilis [14]) | IC50 (Micrococcus luteus [16]) [µM] |
| --- | --- | --- | --- | --- | --- | --- | --- | --- | --- | --- | --- | --- | --- | --- | --- | --- | --- |
| CC1(C)S[C@@H]2[C@H](NC(=O)[C@H](N)c3ccccc3)C(=O)N2[C@H]1C(=O)O [AMPICILLIN] |  | 12.5 (≈ 4.37 µg/mL) | 25 (≈ 8.74 µg/mL) | 50 (≈ 17.5 µg/mL) |  | 3.1 (≈ 1.08 µg/mL) |  | 1.5 | 1 | 8.5 |  |  |  |  |  |  | 1.1 |
